Measured values from patent publication US9181241B2, “Antagonists of chemokine receptors” (ChemoCentryx, Inc., priority 2012, dated 2015).

What was measured:
CCR1 = target: T1, CCR1 (Homo sapiens, UniProt P32246); test: Chemotaxis assay (CTX): inhibition of CCR1 mediated migration of THP-1 or monocyte cells; type: cell-based; settings: class symbols; activity for either the chemotaxis assay or binding assay
T1 construct: host or cells: THP-1 cells or isolated human CD14+ monocytes
T1 sequence (P32246 1-355): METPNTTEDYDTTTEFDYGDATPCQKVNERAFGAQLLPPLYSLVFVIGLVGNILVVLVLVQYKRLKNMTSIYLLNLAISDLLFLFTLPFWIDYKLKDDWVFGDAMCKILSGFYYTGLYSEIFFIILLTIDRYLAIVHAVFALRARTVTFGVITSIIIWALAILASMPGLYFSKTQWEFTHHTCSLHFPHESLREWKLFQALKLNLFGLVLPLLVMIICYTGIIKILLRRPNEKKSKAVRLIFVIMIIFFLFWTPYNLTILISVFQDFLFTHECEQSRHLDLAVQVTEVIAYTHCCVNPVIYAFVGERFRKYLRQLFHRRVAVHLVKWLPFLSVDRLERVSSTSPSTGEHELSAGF
Method: THP-1 cells were obtained from ATCC (TIB-202) and cultured as a suspension in RPMI-1640 medium supplemented with 2 mM L-glutamine, 1.5 g/L sodium bicarbonate, 4.5 g/L glucose, 10 mM HEPES, 1 mM sodium pyruvate, 0.05% 2-mercaptoethanol and 10% FBS. Cells were grown under 5% CO2/95% air, 100% humidity at 37° C. and subcultured twice weekly at 1:5 (cells were cultured at a density range of 2×10^5 to 2×10^6 cells/mL) and harvested at 1×10^6 cells/mL. THP-1 cells express CCR1 and can be used in CCR1 binding and functional assays.
Monocytes were isolated from human buffy coats using the Miltenyi bead isolation system (Miltenyi, Auburn, Calif.). Briefly, following a Ficoll gradient separation to isolate peripheral blood mononuclear cells, cells were washed with PBS and the red blood cells lysed using standard procedures. Remaining cells were labeled with anti-CD14 antibodies coupled to magnetic beads (Miltenyi Biotech, Auburn, Calif.). Labeled cells were passed through AutoMACS (Miltenyi, Auburn, Calif.) and positive fraction collected. Monocytes express CCR1 and can be used in CCR1 binding and functional assays.
Chemotaxis assays were performed using 5 μm pore polycarbonate, polyvinylpyrrolidone-coated filters in 96-well chemotaxis chambers (Neuroprobe; Gaithersburg, Md.) using chemotaxis buffer (Hank's balanced salt solution (HBSS) and 1% FBS). CCR1 chemokine ligands (i.e., MIP-1α, CCL15/Leukotactin; R&D Systems; Minneapolis, Minn.) are use to evaluate compound mediated inhibition of CCR1 mediated migration. Other chemokines (i.e., SDF-1α; R&D Systems; Minneapolis, Minn.) are used as specificity controls. The lower chamber was loaded with 29 μl of chemokine (i.e., 0.1 nM CCL15/Leukotactin) and varying amounts of compound; the top chamber contained 100,000 THP-1 or monocyte cells in 20 μl. The chambers were incubated 1-2 hours at 37° C., and the number of cells in the lower chamber quantified either by direct cell counts in five high powered fields per well or by the CyQuant assay (Molecular Probes), a fluorescent dye method that measures nucleic acid content, and by measuring with a Spectrafluor Plus (Tecan). The computer program Prism from GraphPad, Inc. (San Diego, Calif.) was used to calculate IC50 values. IC50 values are those compound concentrations required to inhibit the number of cells responding to a CCR1 agonist by 50%.

[1] = tested on: inflammatory cells recruited to the inflamed synovial fluid of the knee joints; test: Rabbit model of destructive joint inflammation (rabbit LPS study); type: in vivo, New Zealand rabbits; settings: intra-articular LPS 10 ng, dosed orally 2 hours before and 4 hours after LPS, lavage at sixteen hours
Method: A rabbit LPS study was conducted essentially as described in Podolin, et al. J. Immunol. 169(11):6435-6444 (2002). Female New Zealand rabbits (approximately 2 kilograms) were treated intra-articularly in both knees with LPS (10 ng). The compound of interest, for example 1.016, (formulated in 1% methocel) or vehicle (1% methocel) was dosed orally at a 5 ml/kg dose volume at two times (2 hours before the intra-articular LPS injection and 4 hours after the intra-articular LPS injection). Sixteen hours after the LPS injection, knees were lavaged and cells counts were performed. Beneficial effects of treatment were determined by reduction in the number of inflammatory cells recruited to the inflamed synovial fluid of the knee joints.

IC50 (CCR1)	Structure (SMILES)	reduction in the number of inflammatory cells recruited to the inflamed synovial fluid of the knee joints [1]
< 1000 nM	Cc1c(Cl)c(C(F)F)nn1CC(=O)N1CCCc2c1cnn2-c1ccc(F)cc1	–
–	Cc1c(Cl)c(C(F)(F)F)nn1C(CO)C(=O)N1CCCc2c1cnn2-c1ccc(F)cc1 (stereo not drawn) [Example 1.016]	significant reduction in recruited inflammatory cells
< 1000 nM	Cc1c(Cl)c(C(F)(F)F)nn1C(CO)C(=O)N1CCCc2c1cnn2-c1ccc(F)cc1 (stereo not drawn) [drawing 103]	–
